According to ChEMBL document CHEMBL5291721, “A preclinical secondary pharmacology resource illuminates target-adverse drug reaction associations of marketed drugs” (Nat Commun, 2023):

How the values were obtained:
Prothrombin = Prothrombin (Homo sapiens, UniProt P00734); assay type: functional
Estrogen receptor = molecular target: T1, Estrogen receptor (Homo sapiens, UniProt P03372)
T1 sequence (P03372 whole entry): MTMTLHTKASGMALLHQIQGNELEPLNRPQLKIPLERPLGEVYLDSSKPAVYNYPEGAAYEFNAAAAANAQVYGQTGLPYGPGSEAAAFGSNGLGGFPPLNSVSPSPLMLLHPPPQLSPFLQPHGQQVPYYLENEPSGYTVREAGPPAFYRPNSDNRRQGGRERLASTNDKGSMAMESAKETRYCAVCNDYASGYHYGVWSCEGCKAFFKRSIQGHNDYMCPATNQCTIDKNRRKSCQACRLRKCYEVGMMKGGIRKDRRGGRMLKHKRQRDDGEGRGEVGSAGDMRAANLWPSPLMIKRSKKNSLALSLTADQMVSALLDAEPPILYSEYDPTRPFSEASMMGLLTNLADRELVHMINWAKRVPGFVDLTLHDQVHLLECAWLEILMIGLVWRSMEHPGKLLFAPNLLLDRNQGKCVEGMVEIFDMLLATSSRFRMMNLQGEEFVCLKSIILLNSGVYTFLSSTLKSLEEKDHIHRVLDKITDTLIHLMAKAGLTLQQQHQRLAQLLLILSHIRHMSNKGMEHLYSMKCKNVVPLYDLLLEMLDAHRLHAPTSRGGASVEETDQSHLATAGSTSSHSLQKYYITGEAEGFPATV

Thromboxane A2 receptor = molecular target: T2, Thromboxane A2 receptor (Homo sapiens, UniProt P21731); assay type: functional, cell-based
T2 sequence (P21731 whole entry): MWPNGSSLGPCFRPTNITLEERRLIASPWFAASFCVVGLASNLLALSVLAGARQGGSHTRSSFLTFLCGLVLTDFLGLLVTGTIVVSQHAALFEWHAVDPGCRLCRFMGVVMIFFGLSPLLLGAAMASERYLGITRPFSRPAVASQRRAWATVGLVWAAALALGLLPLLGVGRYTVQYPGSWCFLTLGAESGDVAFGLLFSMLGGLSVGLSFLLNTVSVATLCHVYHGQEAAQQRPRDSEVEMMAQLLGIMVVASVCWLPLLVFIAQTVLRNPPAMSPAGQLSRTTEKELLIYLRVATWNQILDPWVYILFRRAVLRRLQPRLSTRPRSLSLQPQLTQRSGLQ

[1] = molecular target: Prostaglandin G/H synthase 1 (Homo sapiens, UniProt P23219); assay type: functional
Prostaglandin G/H synthase 1, sequence (P23219 whole entry): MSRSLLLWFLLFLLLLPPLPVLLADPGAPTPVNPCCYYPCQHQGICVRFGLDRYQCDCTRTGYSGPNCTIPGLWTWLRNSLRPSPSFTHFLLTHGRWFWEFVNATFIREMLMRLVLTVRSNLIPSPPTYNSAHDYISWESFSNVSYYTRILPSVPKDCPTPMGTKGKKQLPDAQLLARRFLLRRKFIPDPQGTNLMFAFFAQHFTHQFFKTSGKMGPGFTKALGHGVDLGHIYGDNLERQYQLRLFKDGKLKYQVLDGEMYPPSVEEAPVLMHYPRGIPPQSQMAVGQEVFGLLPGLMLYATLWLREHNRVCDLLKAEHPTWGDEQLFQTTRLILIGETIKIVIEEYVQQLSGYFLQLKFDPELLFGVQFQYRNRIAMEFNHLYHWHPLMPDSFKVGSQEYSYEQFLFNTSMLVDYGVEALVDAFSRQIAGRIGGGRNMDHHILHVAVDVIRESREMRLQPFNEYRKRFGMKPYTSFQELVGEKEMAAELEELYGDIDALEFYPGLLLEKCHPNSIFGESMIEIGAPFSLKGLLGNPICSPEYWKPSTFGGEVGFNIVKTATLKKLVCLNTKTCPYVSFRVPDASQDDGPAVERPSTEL

[2] = molecular target: T3, 5-hydroxytryptamine receptor 1A (Homo sapiens, UniProt P08908)
T3 sequence (P08908 whole entry): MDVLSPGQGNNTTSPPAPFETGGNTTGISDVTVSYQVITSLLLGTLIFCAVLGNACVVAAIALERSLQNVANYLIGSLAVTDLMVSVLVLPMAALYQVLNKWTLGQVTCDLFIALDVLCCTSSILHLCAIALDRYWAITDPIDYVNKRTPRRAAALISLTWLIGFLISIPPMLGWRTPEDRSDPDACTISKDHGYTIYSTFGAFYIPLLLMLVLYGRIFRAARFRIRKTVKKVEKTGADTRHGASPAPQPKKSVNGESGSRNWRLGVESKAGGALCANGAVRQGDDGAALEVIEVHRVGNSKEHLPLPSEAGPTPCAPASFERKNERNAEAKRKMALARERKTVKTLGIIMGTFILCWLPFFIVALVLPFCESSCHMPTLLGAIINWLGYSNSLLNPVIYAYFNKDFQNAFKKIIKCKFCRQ

[3] = molecular target: 5-hydroxytryptamine receptor 2B (Homo sapiens, UniProt P41595); assay type: functional, cell-based
5-hydroxytryptamine receptor 2B, sequence (P41595 whole entry): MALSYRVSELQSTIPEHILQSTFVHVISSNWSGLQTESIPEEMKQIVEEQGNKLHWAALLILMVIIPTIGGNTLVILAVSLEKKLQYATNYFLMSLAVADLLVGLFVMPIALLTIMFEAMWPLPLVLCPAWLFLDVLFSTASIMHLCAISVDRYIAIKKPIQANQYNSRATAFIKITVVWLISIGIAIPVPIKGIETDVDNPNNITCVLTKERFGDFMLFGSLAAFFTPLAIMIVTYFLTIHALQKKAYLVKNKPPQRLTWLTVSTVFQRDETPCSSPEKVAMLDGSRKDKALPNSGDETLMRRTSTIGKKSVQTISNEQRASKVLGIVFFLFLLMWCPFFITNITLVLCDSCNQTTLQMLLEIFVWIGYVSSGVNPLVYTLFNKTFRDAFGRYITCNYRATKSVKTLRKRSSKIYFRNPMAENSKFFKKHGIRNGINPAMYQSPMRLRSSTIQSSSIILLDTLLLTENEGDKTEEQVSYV

Progesterone receptor = molecular target: T4, Progesterone receptor (Homo sapiens, UniProt P06401)
T4 sequence (P06401 whole entry): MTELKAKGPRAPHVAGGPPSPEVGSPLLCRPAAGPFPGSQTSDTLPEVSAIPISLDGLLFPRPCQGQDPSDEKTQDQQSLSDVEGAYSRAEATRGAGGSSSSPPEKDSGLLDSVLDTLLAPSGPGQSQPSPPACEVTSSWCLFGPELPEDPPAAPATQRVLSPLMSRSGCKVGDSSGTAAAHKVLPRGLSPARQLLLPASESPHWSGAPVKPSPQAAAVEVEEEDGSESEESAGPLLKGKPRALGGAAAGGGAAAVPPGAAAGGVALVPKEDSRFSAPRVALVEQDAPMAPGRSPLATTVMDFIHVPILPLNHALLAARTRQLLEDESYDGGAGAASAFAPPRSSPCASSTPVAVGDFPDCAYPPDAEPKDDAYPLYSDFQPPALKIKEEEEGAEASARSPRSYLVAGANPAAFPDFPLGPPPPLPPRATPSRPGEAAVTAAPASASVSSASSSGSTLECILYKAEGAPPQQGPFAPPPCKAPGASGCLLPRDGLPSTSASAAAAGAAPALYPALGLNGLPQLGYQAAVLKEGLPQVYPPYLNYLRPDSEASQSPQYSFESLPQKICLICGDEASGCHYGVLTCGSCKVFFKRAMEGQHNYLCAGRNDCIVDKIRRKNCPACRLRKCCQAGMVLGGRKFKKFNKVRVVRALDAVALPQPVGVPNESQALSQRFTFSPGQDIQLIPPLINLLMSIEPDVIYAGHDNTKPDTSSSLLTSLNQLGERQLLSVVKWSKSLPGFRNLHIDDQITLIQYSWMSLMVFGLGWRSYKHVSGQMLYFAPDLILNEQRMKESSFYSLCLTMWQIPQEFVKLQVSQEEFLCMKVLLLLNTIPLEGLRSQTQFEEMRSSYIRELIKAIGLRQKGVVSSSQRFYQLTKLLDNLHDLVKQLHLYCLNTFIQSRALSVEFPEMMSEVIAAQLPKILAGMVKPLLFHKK

[4] = molecular target: T5, Peroxisome proliferator-activated receptor alpha (Homo sapiens, UniProt Q07869); assay type: functional
T5 sequence (Q07869 whole entry): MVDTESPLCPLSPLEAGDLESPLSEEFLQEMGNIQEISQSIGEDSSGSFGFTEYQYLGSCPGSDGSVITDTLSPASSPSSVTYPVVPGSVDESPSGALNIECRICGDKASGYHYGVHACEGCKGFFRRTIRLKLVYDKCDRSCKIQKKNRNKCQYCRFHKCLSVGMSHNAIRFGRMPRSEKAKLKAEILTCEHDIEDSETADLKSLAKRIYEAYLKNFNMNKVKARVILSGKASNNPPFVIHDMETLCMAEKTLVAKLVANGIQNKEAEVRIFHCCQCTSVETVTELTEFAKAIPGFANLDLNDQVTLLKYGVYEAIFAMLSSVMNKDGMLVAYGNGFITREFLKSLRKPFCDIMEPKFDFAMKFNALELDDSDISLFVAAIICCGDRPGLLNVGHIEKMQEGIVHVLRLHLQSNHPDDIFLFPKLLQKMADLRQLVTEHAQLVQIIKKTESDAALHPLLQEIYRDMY

[5] = molecular target: T5, Peroxisome proliferator-activated receptor alpha; assay type: functional; remark: listed apart in the source
Also: assay procedure not described here.

| AC50 [4] | AC50 [5] | Molecule | AC50 (Prothrombin) | AC50 (Estrogen receptor) | AC50 (Thromboxane A2 receptor) | AC50 [1] | AC50 [2] | AC50 [3] | AC50 (Progesterone receptor) |
| --- | --- | --- | --- | --- | --- | --- | --- | --- | --- |
| – | – | Nc1nc2ccc(OC(F)(F)F)cc2s1 [RILUZOLE] | > 30 µM | > 30 µM | > 30 µM | > 30 µM | > 30 µM | > 30 µM | > 30 µM |
| > 30 µM | > 30 µM | CC(C)(Oc1ccc(C2CC2(Cl)Cl)cc1)C(=O)O (stereo not drawn) [CIPROFIBRATE] | – | – | – | – | – | – | – |
| – | – | BIVALIRUDIN | 0.0092 µM | > 30 µM | > 30 µM | > 30 µM | > 30 µM | > 30 µM | > 30 µM |
| > 30 µM | > 30 µM | CC(C)c1c(C(=O)Nc2ccccc2)c(-c2ccccc2)c(-c2ccc(F)cc2)n1CC[C@@H](O)C[C@@H](O)CC(=O)O [ATORVASTATIN] | – | – | – | – | – | – | – |
